Patent US12274693B2, “Anti-proprotein convertase subtilisin kexin type 9 (anti-PCSK9) nano-formulation of compounds and methods of using the same” (SHIFA BIOMEDICAL CORPORATION, priority 2018, dated 2025)
Several values for one entry are separate records, joined by “and”; a condition that tells them apart may be missing. Identical values can stand only once. Like-named read-outs stand apart in the source and are kept apart here.

Experiments:
[1] = test system: LDLR; test: Cell-based assay for LDLR upregulation; conditions: compared to cells treated with same volume of DMSO
[2] = molecular target: T1, PCSK9/LDLR interaction (His-tagged PCSK9, recombinant LDLR-AB domain) (Homo sapiens, UniProt Q8NBP7); test: In vitro ELISA binding assay (Circulex) for inhibition of the PCSK9/LDLR interaction; conditions: for IC50 for inhibition of the PCSK9/LDLR interaction, range in words: FIG. 4A
T1 construct: purchased Circulex
T1 sequence (Q8NBP7 153-692): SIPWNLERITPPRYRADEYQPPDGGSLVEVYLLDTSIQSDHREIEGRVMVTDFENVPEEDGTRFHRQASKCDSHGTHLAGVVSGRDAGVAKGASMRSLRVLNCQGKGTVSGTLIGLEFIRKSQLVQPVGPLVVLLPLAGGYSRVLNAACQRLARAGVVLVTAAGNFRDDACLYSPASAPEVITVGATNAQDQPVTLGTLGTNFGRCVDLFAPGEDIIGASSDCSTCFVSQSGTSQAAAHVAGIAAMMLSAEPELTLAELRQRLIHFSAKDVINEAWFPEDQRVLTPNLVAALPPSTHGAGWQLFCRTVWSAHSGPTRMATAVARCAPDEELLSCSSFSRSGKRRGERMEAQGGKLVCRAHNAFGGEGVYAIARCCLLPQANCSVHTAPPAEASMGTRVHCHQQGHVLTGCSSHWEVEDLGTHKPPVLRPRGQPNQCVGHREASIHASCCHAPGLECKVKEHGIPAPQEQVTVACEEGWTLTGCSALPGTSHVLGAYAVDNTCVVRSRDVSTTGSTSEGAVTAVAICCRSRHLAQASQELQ
T1 sequence (Q8NBP7 31-152 partner limits assumed): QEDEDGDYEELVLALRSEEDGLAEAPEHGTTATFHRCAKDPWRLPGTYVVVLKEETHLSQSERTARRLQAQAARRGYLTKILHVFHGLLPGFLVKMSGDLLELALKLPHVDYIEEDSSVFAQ
Description: FIG. 4A provides a graph of the effect of SBC-115,418, SBC-115,433, SBC-115,448, and SBC-115,462 on the PCSK9/LDLR interaction. An in vitro ELISA assay kit was utilized (Circulex). For screening inhibitors of the PCSK9/LDLR interaction, different concentrations (0.01 nM-100 μM) of selected compounds were incubated with His-tagged PCSK9 and then added to wells that were pre-coated with recombinant LDLR-AB domain. After incubation, the plate was washed and the amount of recombinant His-tagged PCSK9 was measured using the biotinylated anti-His-tag and horseradish peroxidase conjugated Streptavidin and quantitated using a BioTek Synergy™ 2 plate reader. The effect of each compound on the PCSK9 binding to the recombinant LDLR-AB domain was calculated.
FIG. 4B provides a graph of the effect of SBC-115,418 on the PCSK9/LDLR interaction under increased solubilization conditions (10% DMSO) (418s). An in vitro ELISA assay (Circulex) was utilized. Different concentrations ([…]-100 μM) of SBC-115,418 in DMSO were incubated with His-tagged PCSK9 and then added to wells that were pre-coated with recombinant LDLR-AB domain as described in FIG. 4A.
(§1) Testing of SBC-115,418 and analogs was performed in a binding assay to determine their ability to inhibit the PCSK9/LDLR interaction. SBC-115,418 inhibited the PCSK9/LDLR interaction with an IC50 in the sub-micro-molar range. Experimental details are provided hereinabove and in WO 2017/222953. […] Given the lipophilicity of lead compound SBC-115,418, a solubility study was undertaken to look at its effects on binding (FIG. 4B). An in vitro ELISA binding assay was performed at different concentrations (0.01 μM-100 μM) of SBC-115,418 under different solubilization conditions.

[3] = test system: PCSK9; test: Test for secreted PCSK9 (synthesis, processing and secretion); assay type: cell-based; conditions: in the cells or into the media
From the text: Experimental details are provided hereinabove and in WO 2017/222953.

[4] = test system: HepG2 cells; test: Uptake of fluorescent Dil-LDL in HepG2 cells; assay type: cell-based; conditions: 10 μM
From the text: FIG. 5 provides a graph of the effect of SBC-115,418, SBC-115,433, SBC-115,448, and SBC-115,462 on the uptake of fluorescent Dil-LDL in HepG2 Cells. The compounds were validated for their ability to increase uptake of Fluorescent Dil-LDL in HepG2 cells.

[5] = Lipophilicity and solubility of the compounds; assay type: physicochemical
Description: [formula] The size distribution of the nanoparticles in aqueous dispersions was determined using a Malvern zeta sizer (Malvern Instrumentation Co, Westborough, MA). 50 mg of the lyophilized nanoparticles were re-suspended in 2 mL of water. This nanoparticles solution was placed into a 3 mL, 4-sided, clear plastic cuvette, and measured directly. Shown are the HPLC chromatograms of SBC-115,418 used to construct the standard curve at different concentrations. Calibrator series of SBC-115,418 were prepared in DMSO by a 2-fold series dilution including 3.9, 7.8, 15.6, 31.5, 62.5, 125, and 250 μg/mL (left).
as §1

[6] = ELISA, read-out: in vitro inhibition of the PCSK9/LDLR interaction (IC50)

| IC50 for inhibition of the PCSK9/LDLR interaction, range in words ([2]; ELISA) | IC50 [2, 6] | IC50 ([2]; increased solubilization conditions (10% DMSO), FIG. 4B, read-out: IC50 of in vitro binding under improved solubility conditions) [µM] | solubility ([5]; 80% acetonitrile, organic solvent or mixture) [µg/mL] | logP [5] | solubility relative to SBC-115,418 [5] | Compound | level of LDLR versus DMSO control [1] | effect on PCSK9 synthesis, processing and secretion [3] | Fluorescent Dil-LDL uptake [4] |
| --- | --- | --- | --- | --- | --- | --- | --- | --- | --- |
| low micro-molar | < 5 µM |  |  |  |  | COc1ccc2oc(C(=O)Nc3ccc(C(=O)Nc4ccc(-c5ncco5)cc4)cc3)c(C)c2c1 [SBC-115,462] | significant upregulation | no significant effect | significant increase |
| low micro-molar | < 5 µM |  |  |  |  | O=C(Nc1ccc(C(=O)Nc2ccc(-c3ncco3)cc2)c(F)c1)c1cc2ccccc2o1 [SBC-115,448] | significant upregulation | no significant effect | increase |
| sub-micro-molar | < 5 µM |  |  |  |  | O=C(Nc1ccc(-c2ncco2)cc1)c1ccc(NC(=O)c2cc3ccccc3o2)cc1 [SBC-115,433] | significant upregulation | no significant effect | increase |
| sub-micro-molar | < 5 µM | 0.05 | < 100 |  |  | COc1ccc2oc(C(=O)Nc3ccc(C(=O)Nc4ccc(-c5nc6ccccc6o5)cc4)cc3)c(C)c2c1 [SBC-115,418] | significant upregulation | no significant effect | significant increase |
| sub-micro-molar | < 5 µM and 0.19 µM |  |  | 4.5 | increased solubility | COc1ccc2oc(C(=O)Nc3ccc(C(=O)Nc4ccc(-c5nc6ccccc6[nH]5)cc4)cc3)c(C)c2c1 [SBC-115,477] | upregulation | no significant effect |  |
